Results: ChEMBL document CHEMBL1201862, “PubChem BioAssay data set” (2004)
The source made the active and inactive calls.

Tests used:
[1] = biological target: T1, Coagulation factor XII (Homo sapiens, UniProt P00748); format: functional;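 further: activated factor XIIa alpha cleaving a fluorogenic AMC peptide substrate; inhibitor potency from loss of enzyme activity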
T1 sequence (P00748 whole entry): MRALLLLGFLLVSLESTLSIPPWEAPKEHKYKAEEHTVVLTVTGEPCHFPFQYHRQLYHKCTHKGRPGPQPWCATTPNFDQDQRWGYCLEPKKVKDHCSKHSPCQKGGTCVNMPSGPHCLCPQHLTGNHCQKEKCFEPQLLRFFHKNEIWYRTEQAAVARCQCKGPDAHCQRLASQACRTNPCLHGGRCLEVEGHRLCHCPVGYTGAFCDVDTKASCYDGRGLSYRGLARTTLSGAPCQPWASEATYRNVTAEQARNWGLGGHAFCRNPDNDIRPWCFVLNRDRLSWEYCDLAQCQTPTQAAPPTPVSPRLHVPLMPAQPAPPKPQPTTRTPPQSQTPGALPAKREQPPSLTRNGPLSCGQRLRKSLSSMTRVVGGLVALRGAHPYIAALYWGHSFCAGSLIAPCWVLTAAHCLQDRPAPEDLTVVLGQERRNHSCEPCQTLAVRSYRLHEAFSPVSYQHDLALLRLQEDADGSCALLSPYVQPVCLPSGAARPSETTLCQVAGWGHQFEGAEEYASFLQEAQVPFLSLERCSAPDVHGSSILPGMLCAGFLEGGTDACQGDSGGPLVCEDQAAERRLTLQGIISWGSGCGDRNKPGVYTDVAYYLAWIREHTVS

[2] = biological target: Troponin, cardiac muscle (Homo sapiens, UniProt P19429+P45379+P63316); test: Fluorescence-based biochemical high throughput dose response assay for activators of the calcium sensitivity of cardiac Regulated Thin Filaments (RTF). [Related pubchem assays (depositor defined):AID493008, AID493018, AID504382, AID504383]; format: protein-complex assay
[3] = biological target: T2, Cannabinoid receptor 1 (Homo sapiens, UniProt P21554); test: SAR analysis of antagonists of the Cannabinoid Receptor 1 using an Image-Based Assay - Set 4. [Related pubchem assays (depositor defined):AID2013, AID2026]; format: functional
[4] = biological target: G-protein coupled receptor 55 (Homo sapiens, UniProt Q9Y2T6); test: SAR Analysis of Selective Antagonists of GPR55 using an Image-Based Assay - Set 4. [Related pubchem assays (depositor defined):AID2013, AID2026]; format: functional;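 further: antagonism of response to 5 µM lysophosphatidylinositol agonist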
[5] = biological target: T3, G-protein coupled receptor 35 (Homo sapiens, UniProt Q9HC97); test: SAR analysis of Antagonists of the GPR35 Receptor using an Image-Based Assay - Set 6. [Related pubchem assays (depositor defined):AID2013, AID2026]; format: functional
[6] = biological target: T4, Cannabinoid receptor 2 (Homo sapiens, UniProt P34972); test: SAR analysis of antagonists of the Cannabinoid Receptor 2 using an Image-Based Assay - Set 3. [Related pubchem assays (depositor defined):AID2013, AID2026]; format: functional
[7] = biological target: T2, Cannabinoid receptor 1; test: SAR analysis of agonists of the Cannabinoid Receptor 1 using an Image-Based Assay - Set 4. [Related pubchem assays (depositor defined):AID2013, AID2026]; format: functional
[8] = biological target: T4, Cannabinoid receptor 2; test: SAR analysis of agonists of the Cannabinoid Receptor 2 using an Image-Based Assay - Set 3. [Related pubchem assays (depositor defined):AID2013, AID2026]; format: functional
[9] = biological target: T3, G-protein coupled receptor 35; test: SAR analysis of Agonists of the GPR35 Receptor using an Image-Based Assay - Set 4. [Related pubchem assays (depositor defined):AID2013, AID2026]; format: functional
[10] = biological target: T5, Bcl-2-related protein A1 (Mus musculus, UniProt Q07440); format: functional;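 further: confirmatory dose–response counterscreen on Bfl-1, used to check hits from a UBC13 polyubiquitin inhibitor campaign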
T5 sequence (Q07440 whole entry): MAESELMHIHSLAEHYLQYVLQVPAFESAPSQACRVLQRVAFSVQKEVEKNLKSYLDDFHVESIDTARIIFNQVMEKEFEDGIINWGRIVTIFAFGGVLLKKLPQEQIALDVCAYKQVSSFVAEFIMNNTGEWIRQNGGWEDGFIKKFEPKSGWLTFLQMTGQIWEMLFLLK

[11] = biological target: T6, Ubiquitin-conjugating enzyme E2 N (Homo sapiens, UniProt P61088); format: functional
T6 sequence (P61088 whole entry): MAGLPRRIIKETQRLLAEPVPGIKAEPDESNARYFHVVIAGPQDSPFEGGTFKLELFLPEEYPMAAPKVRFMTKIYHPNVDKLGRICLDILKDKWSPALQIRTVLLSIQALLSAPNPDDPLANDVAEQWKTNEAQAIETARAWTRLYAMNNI

[12] = biological target: T6, Ubiquitin-conjugating enzyme E2 N; format: functional; remark: listed apart in the source
[13] = biological target: Hexokinase (Trypanosoma brucei, UniProt Q38C41); test: Confirmation assay for inhibitors of Trypanosoma brucei hexokinase 1-Analogue-first series. [Related pubchem assays (depositor defined):AID1430, AID1632, AID2516, AID2560, AID2579, AID2600, AID449725, AID492951]; format: functional
Chain of Hexokinase (Q38C41 whole entry): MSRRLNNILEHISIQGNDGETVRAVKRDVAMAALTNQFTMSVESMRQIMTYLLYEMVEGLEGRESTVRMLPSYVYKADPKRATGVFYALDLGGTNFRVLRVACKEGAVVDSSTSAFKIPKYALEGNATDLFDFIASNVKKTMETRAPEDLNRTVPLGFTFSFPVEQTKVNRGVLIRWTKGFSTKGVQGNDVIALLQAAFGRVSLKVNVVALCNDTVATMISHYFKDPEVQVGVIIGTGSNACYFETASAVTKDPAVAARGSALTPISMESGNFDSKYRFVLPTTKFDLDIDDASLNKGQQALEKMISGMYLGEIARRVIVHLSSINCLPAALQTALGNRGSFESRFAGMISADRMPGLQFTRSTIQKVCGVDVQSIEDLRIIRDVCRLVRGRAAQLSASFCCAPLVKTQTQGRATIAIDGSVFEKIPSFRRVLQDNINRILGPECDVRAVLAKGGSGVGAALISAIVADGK

T3 sequence (Q9HC97 whole entry): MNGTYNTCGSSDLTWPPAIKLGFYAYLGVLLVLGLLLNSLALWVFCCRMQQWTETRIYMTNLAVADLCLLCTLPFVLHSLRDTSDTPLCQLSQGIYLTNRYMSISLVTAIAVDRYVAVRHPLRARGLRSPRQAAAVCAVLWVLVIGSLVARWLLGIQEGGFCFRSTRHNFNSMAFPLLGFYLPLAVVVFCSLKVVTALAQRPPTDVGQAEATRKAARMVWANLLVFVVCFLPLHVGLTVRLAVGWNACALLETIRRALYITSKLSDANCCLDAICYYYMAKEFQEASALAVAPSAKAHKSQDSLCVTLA
T2 sequence (P21554 whole entry): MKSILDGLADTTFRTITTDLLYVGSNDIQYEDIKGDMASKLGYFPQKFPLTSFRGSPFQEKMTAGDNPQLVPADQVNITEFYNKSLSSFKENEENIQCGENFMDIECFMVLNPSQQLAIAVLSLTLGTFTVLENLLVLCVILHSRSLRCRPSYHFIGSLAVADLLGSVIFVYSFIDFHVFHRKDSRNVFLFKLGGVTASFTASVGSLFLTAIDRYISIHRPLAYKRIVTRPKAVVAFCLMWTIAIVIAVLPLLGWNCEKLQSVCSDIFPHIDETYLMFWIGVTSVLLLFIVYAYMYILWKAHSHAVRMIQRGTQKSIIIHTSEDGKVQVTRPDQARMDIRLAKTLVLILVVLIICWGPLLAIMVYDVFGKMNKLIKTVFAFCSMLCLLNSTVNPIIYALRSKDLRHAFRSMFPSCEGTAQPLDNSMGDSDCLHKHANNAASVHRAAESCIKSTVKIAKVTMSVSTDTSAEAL
T4 sequence (P34972 whole entry): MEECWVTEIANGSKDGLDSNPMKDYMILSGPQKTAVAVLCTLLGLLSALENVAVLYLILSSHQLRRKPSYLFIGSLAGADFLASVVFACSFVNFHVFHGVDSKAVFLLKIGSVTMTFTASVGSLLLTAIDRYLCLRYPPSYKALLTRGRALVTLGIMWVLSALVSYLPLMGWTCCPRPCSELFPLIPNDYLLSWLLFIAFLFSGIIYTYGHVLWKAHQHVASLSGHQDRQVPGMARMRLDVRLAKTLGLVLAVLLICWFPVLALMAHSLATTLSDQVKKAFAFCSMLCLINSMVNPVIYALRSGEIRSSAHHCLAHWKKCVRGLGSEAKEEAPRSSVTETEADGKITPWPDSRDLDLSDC
Chain of G-protein coupled receptor 55 (Q9Y2T6 whole entry): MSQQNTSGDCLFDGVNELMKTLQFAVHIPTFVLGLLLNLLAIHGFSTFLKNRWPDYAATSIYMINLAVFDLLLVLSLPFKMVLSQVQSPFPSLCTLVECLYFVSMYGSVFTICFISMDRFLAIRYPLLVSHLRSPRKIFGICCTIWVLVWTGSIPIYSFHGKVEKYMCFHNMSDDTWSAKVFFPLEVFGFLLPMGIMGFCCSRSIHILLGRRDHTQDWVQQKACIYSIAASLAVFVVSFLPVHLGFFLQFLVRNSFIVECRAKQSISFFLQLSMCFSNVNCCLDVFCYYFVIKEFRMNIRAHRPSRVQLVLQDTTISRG

IC50 [3] | IC50 [4] | IC50 [5] | IC50 [6] | EC50 [7] | EC50 [8] | EC50 [9] | SMILES | other results
– | – | – | – | – | – | – | CC12CCC(C(=O)NC(c3ccccc3)c3ccccc3)(OC1=O)C2(C)C (stereo not given) | IC50 [1]: > 50 µM (inactive)
– | – | – | – | – | – | – | COc1ccc(S(=O)(=O)N2CN(Cc3ccco3)c3nc4ccccc4nc32)cc1 | EC50 [2]: > 71.5 µM (inactive)
1.68 µM (active) | 3.95 µM (active) | > 32 µM (inactive) | 10.4 µM (inactive) | > 32 µM (inactive) | > 32 µM (inactive) | > 32 µM (inactive) | Cc1nnc(-c2cccc(Br)c2)c2cn(-c3ccccc3)nc12 | –
– | – | – | – | – | – | – | O=C(CCNC(=O)Cn1ccc2ccccc2c1=O)NCCN1CCN(c2cccc(Cl)c2)CC1 | IC50 [10]: > 20 µM (inactive); IC50 [11]: 4.45 µM (active); IC50 [12]: 8.08 µM (active)
24.9 µM (inactive) | 8.18 µM (active) | > 32 µM (inactive) | > 32 µM (inactive) | > 32 µM (inactive) | > 32 µM (inactive) | > 32 µM (inactive) | Cc1ccc2nc3c(cc(C(=O)NC4CCCC4)c(=N)n3C3CCCC3)c(=O)n2c1 | –
– | – | – | – | – | – | – | COc1ccc(C(=O)Nc2ccc(Cl)cc2C(=O)O)cc1 | IC50 [13]: > 25 µM (inactive)
